Values quoted from earlier work as cited in patent US20260265270A1 (priority 2023, published 2026).

Assays:
[1] = test system: IL-23 secreted by monocytes; conditions: after administration of the inhibitor
[2] = test system: IL-2 secreted by T cells; conditions: after administration of the inhibitor

COc1ccc(C[C@H](NC(=O)[C@H](C)NC(=O)CN2CCOCC2)C(=O)N[C@@H](Cc2ccccc2)C(=O)C2(C)CO2)cc1 (stereo in doubt) [ONX0914]
IL-23 secreted by monocytes [1]: decrease significantly | IL-2 secreted by T cells [2]: decrease significantly
